Patent US20210322297A9, “COSMETIC COMPOSITIONS FOR PROTECTION AGAINST LIGHT-INDUCED DAMAGES” (priority 2018, published 2021)
Values joined by “and” are separate entries in the source; they are usually repeats but may differ in a detail not shown here. Equal values may be shown once.

Tested on: Human keratinocytes (HaCAT)
Test: Carbonyl Score analysis: blue light (460 nm)-induced protein oxidative damage (carbonylation)
Type: cell-based
Source text: Human keratinocytes (HaCAT) were irradiated in the presence or absence of a composition (C-1) comprising equal weight amounts of extracts (Q), (GS) and (GT) (VitakeloxTM) using an irradiation system available from OxiProteomics®. A solution of N-acetyl-cysteine was used as positive control of protection. Just after irradiation, proteins were extracted from the cells and analyzed. Carbonylated proteins were labeled with specific functionalized fluorescent probes and the resulting samples were resolved by high-resolution electrophoresis. Total proteins were post-stained with SyproTM Ruby protein gel stain. A Carbonyl (protein damage) Score was obtained for each sample after normalization of the fluorescent signal for carbonylated proteins by total proteins. A significant increase in protein oxidative damage was observed upon blue light irradiation. This increase was prevented in the presence of composition (C-1) at two different concentrations (0.01% and 0.005% w/v) and with two times of treatment (6 hours and 24 hours). HaCaT cells were cultured in calcium-free DMEM (Dulbecco's Modified Eagle Medium), with 10% SVF […], at 37° C. and humid atmosphere, supplemented with 5% CO2. Cells were seeded (500.000 cells/well) at day 0 (D0) in multi-well plates containing culture medium and distributed in 8 experimental groups as depicted in Table 1. On day 1 (D1), two solutions of composition (C-1) having two different concentrations (0.01% and 0.005%) were prepared by solubilisation of the composition in the culture medium. Experimental groups 4 and 6 were incubated for 24 hours (t2) with the solutions prior to irradiation. At day 2 (D2), experimental groups 3 and 5 were incubated for 6 hours (t1) prior to blue light irradiation. Groups 7 and 8 were incubated with a solution of NAC (N-acetyl-cysteine) for 6 and 24 hours. On day 2 (D2), the cells were washed and a stress was induced by irradiation with Blue Light (LED source, emission peak at λ=460 nm), using an OxiProteomics® irradiation system. Group 1 was not irradiated. Just after irradiation, cells were collected, snap-frozen and stored at -80° C. for the analysis. Proteins were extracted from cells, quantified by the Bradford method and split into equal amounts for analyses. […] After extraction and solubilisation, proteins in samples were quantified by the Bradford method using calibrated BSA (bovine serum albumin) as standard (Bradford M. Anal. Biochem., 72, 248, 1976). […] Proteins were fixed to the gel and the carbonylated proteins were evidenced by fluorescence scanning. […] Quantification was obtained from each sample, both for carbonylated and total proteins. […]

`CC(=O)N[C@@H](CS)C(=O)O` [NAC, N-acetyl-cysteine] was tested, and the “Carbonyl Score” value (NAC 6 h incubation before blue light irradiation, group G-7, carbonylated signal normalized by total protein signal) was 0.734 and 0.742 and 0.657, the Oxidized proteins (NAC 6 h incubation before blue light irradiation, group G-7, densitometric signal per replicate) was 12101.36 and 11379.65 and 10415.94 and the “Carbonyl Score” value (NAC 24 h incubation before blue light irradiation, group G-8, carbonylated signal normalized by total protein signal) was 0.639 and 0.700 and 0.631. The Oxidized proteins (NAC 24 h incubation before blue light irradiation, group G-8, densitometric signal per replicate) was 9126.82 and 11501.94 and 10859.53.
